Reference: US8501734B2, “Medical intervention in haematological cancers” (Oncotyrol-Center for Personalized Cancer Medicine GmbH …, priority 2008, dated 2013)

Key:
melanoma cells = conditions: 50 μg/ml, 24 h; cited from earlier work
[1] = tested on: primary MM cells (CD38highCD45low); experiment: Annexin V/PI apoptosis assay, primary MM cells from patient bone marrow aspirates; format: cell-based, human; conditions: 40 μg/ml, 8 h or 24 h, time dependent
Protocol: (§1) For collection of primary multiple myeloma cells, bone marrow aspirates from iliac crests were collected during routine examinations after obtaining informed patient consent. Bone marrow mononuclear cells (BMMCs) were separated by density centrifugation. Fresh blood samples were diluted 1:1 with RPMI 1640 medium and layered over Biocoll separating solution (1.077 g/ml, Biochrom AG, Berlin; blood/RPMI1640/Biocoll; 1:1:1, v/v/v). Centrifugation was carried out for 20 min at 400 g. […] The percentage of multiple myeloma cells within the BMMCs was determined by flow cytometry. Briefly, 2×10^5 cells were stained for 15 min with fluorochrome-labelled antibodies to CD38 (phycoerythrin, PE) and CD45 (phycoerythrin-cyanin 5, PC5) (both from Beckman Coulter Inc., Fullerton, Calif., USA), washed with PBS and were immediately analyzed using the FC500 flow cytometer and the RXP1.0 software (Beckman Coulter). MM cells were detected by their high expression of CD38 and weak to absent expression of CD45.
(§2) After treatment adherent cells were trypsinized (as described before), and resuspended in corresponding full medium. […] At least 10.000 cells were measured per sample using a Becton Dickinson FACSCalibur flow Cytometer (San Jose, Calif., USA). […]

NCI cells = experiment: Annexin V/PI apoptosis assay, NCI cells; format: cell-based; conditions: 40 μg/ml, 24 h
Protocol: (§3) After treatment adherent cells were trypsinized (as described before), and resuspended in corresponding full medium. Suspension cells or trypsinized adherent cells, supernatant and washing solution (1×PBS from washing before trypsinization) were pooled and then spun down (300 g for 3 min) washed in 2 ml and resuspended in 1000 of annexin V binding buffer and mixed with 2 μg/ml annexin V-Allophycocyanin (APC) (BD-Pharmingen, San Diego, Calif., USA) and 50 ng/ml of propidium iodide (PI; Sigma Aldrich). At least 10.000 cells were measured per sample using a Becton Dickinson FACSCalibur flow Cytometer (San Jose, Calif., USA). Percentage of Annexin V negative and PI negative cells were depicted in the figures. […] Briefly, BMMCs were stained with a mixture of annexin V/FITC (Alexis Coorp., Laeufelfingen, Switzerland), propidium iodide (Sigma), anti-CD38-PE and anti-CD45-PC5 for 15 min at room temperature and immediately analyzed by flow cytometry. The percentages of viable cells (i.e. cells negative for annexin V/FITC and PI) within the MM (CD38^posCD45^low/absent) and non-MM fraction (CD38^neg/CD45^pos) were determined by flow cytometry.
(§4) Adherent cells were grown in 24-well plates to confluence and treated with 40 μg/ml Imiquimod® for 24 h. Cells were then trypsinized, suspended in full medium, stained for AnnexinV/PI and apoptosis was measured as described before. […]

OPM2 cells = experiment: PARP cleavage assay (Western blot), OPM2 cells; format: cell-based; conditions: 40 μg/ml
Protocol: Cells were lysed in lysis-IP-Buffer supplemented with protease inhibitors and sodium orthovanadate. 10 μg of lysate were separated by SDS-PAGE (10% polyacrylamide) and transferred to methanol activated Hypond-P PVDF-membranes (Amersham, Freiburg, Germany) by semi-dry blotting. Membranes were blocked in a 3% bovine serum albumin solution or 5% non fat dry milk solution in phosphate buffered saline (PBS) with 0.1% Tween 20 (PBT). Primary antibodies were applied in blocking solution for 1 h at room temperature or over night at 4° C. Membranes were washed in PBT and incubated with corresponding secondary antibodies in 5% non fat dry milk in PBT for 1 h at room temperature. Cells were washed with PBT, incubated with ECL solution and exposed in a Fluorchem 5500 (Biozym, Oldendorf, Germany).
OPM2 cells were suspended in full medium and cultured in 24-well plates at a cell density of 500.000 cells/ml and well. Cells were left untreated (control) or treated over night with different concentrations of Imiquimod® (10, 20 or 40 μg/ml).
OPM2 cells were cultured in 24-well plates as described above. Imiquimod® (40 μg/ml) was added to cells (except controls) for different time periods (2, 4, 6 and 8 h) and the extent of PARP1 cleavage, IRAK1, IkB-α and IkB-β degradation were determined by Western blot. α-Tubulin was used as a loading control.

OPM-2 cells xenograft = format: in vivo, NIH III-nude mice
Protocol: Average tumor diameter and mouse body weight was measured every 3rd day.
Treatment was started when tumors reached an average diameter of 0.8 cm and mice were sacrificed when the tumor reached an average diameter of 1.5 cm. A maximum volume of 150 μl of Imiquimod®, in a concentration of 2.5 mg/ml in H2O, was injected subcutaneously into the left flank of the mice. The same amount of H2O was injected in the same way into control mice. Tumor volume was calculated with the formula 4π/3×(width/2)2×(length/2).

[2] = tested on: human epidermoid carcinoma cell line A431; experiment: Apoptosis induction in A431 cells; format: cell-based
Protocol: as §3, §4

[3] = tested on: non-tumor cells (CD38negCD45high); experiment: Annexin V/PI apoptosis assay, non-tumor fraction of patient BMMCs; format: cell-based, human; conditions: CD45high non-tumor cells, 40 μg/ml, 8 h or 24 h
Protocol: as §1, §2

[4] = tested on: Raji, Daudi, Ramos, Jurkat, C7H2 cell lines; experiment: Annexin V/PI apoptosis assay, non-multiple myeloma suspension cell lines; format: cell-based; conditions: 24 h
Protocol: (§5) After treatment adherent cells were trypsinized (as described before), and resuspended in corresponding full medium. Suspension cells or trypsinized adherent cells, supernatant and washing solution (1×PBS from washing before trypsinization) were pooled and then spun down (300 g for 3 min) washed in 2 ml and resuspended in 1000 of annexin V binding buffer and mixed with 2 μg/ml annexin V-Allophycocyanin (APC) (BD-Pharmingen, San Diego, Calif., USA) and 50 ng/ml of propidium iodide (PI; Sigma Aldrich). At least 10.000 cells were measured per sample using a Becton Dickinson FACSCalibur flow Cytometer (San Jose, Calif., USA). Percentage of Annexin V negative and PI negative cells were depicted in the figures. For the analysis of the pro-apoptotic activity of Imiquimod® in primary MM cells and non-malignant BMMCs, 5×10^5 cells BMMCs cells were treated with or without 40 μg/ml Imiquimod® for the indicated time periods. Cells were then harvested and washed twice with PBS. Detection of apoptotic cells was performed using the annexin V/PI assay according to manufacturers' instruction. Briefly, BMMCs were stained with a mixture of annexin V/FITC (Alexis Coorp., Laeufelfingen, Switzerland), propidium iodide (Sigma), anti-CD38-PE and anti-CD45-PC5 for 15 min at room temperature and immediately analyzed by flow cytometry. The percentages of viable cells (i.e. cells negative for annexin V/FITC and PI) within the MM (CD38^posCD45^low/absent) and non-MM fraction (CD38^neg/CD45^pos) were determined by flow cytometry.
(§6) Adherent cells were grown in 24-well plates to confluence and treated with 40 μg/ml Imiquimod® for 24 h. Cells were then trypsinized, suspended in full medium, stained for AnnexinV/PI and apoptosis was measured as described before. Suspension cells (250.000) were treated with 40 μg/ml Imiquimod® for 24 h, stained for Annexin/PI and apoptosis was measured as described above (Annexin V/Propidium Iodide apoptosis Assay).

U266 cells = experiment: Annexin V/PI apoptosis assay (FACS), U266 cells; format: cell-based; design: apoptosis induction: unit not given here; conditions: for apoptosis induction: Imi 20 μg/ml alone; for Apoptosis induction: key: 0 for no; + for low; ++: + indicates the range of apoptosis induction; +++: + indicates the range of apoptosis induction; ++++ for very strong apoptosis induction
Protocol: as §5, §6
OPM-2 and U266 cells (2.5×10^5 in 500 μl) were treated with either Imiquimod® alone (10 μg/500 μl), various inhibitors/drugs alone or with the combination of Imiquimod® and inhibitors for 24 or 48 h. In the controls the solvent of the drug has been added in appropriate amounts. Cells were then AnnexinV/PI stained and apoptosis measured as described before.

Structure (SMILES): CC(C)Cn1cnc2c(N)nc3ccccc3c21 [Imiquimod, 1-(2-methylpropyl)-1H-imidazo[4,5-c]quinolin-4-amine]
- apoptotic cells (melanoma cells): 15.8%
- apoptosis induction [1]: significantly induced apoptosis
- apoptotic cells (NCI cells): 90%
- PARP cleavage (OPM2 cells; 2 hours after application): some PARP cleavage
- apoptosis induction in PARP cleavage assay (OPM2 cells; 6 h to 8 h after application): 100%
- PARP cleavage (OPM2 cells; after 6 hours): nearly complete PARP cleavage
- onset of apoptosis induction (OPM2 cells; multiple myeloma cells): 2 h
- changes in tumor volume (OPM-2 cells xenograft; 10 mg/kg s.c. twice daily): ranging from tumor regression and stagnation, via slower growth to increase in tumor volume comparable to controls
- histological analysis of tumors (haematoxylin and eosin) (OPM-2 cells xenograft; 10 mg/kg s.c. twice daily): regions of massive tissue destruction
- tumor regression (OPM-2 cells xenograft; 10 mg/kg s.c. twice daily): 5 cases
- weight development, treated versus control mice (OPM-2 cells xenograft; 10 mg/kg s.c. twice daily): no difference
- survival of treated mice (OPM-2 cells xenograft; 10 mg/kg s.c. twice daily vs H2O, p=0.027, t-test): significantly increased
- side effects (OPM-2 cells xenograft; 10 mg/kg s.c. twice daily, besides scars at the injection site): no obvious side effects could be observed
- apoptosis induction [2]: no significant apoptosis induction
- apoptosis induction [3]: induction of apoptosis
- sensitivity (apoptosis) ([4]; Raji and Jurkat, 40 μg/ml): if at all only low sensitivity
- apoptosis induction ([4]; Raji, Daudi, Ramos, Jurkat, C7H2, 20 μg/ml): apoptosis to some minor degree
- cells dying upon treatment (U266 cells; 40 μg/ml, 24 h): about 30%
- apoptosis induction (U266 cells; 24 h): +
- apoptosis induction (U266 cells; 48 h, listed as Imi): + and ++
